Read-outs that look alike come from different tables or passages of the source.
Legend:
pancreatic cancer = conditions: cited from earlier work; for tumor volume over time: mice, repeated injections, compared with control group curve CRTL; for effect on pancreatic cancer cells/tumors in mice: reported by Donadelli, high dosages of CB1 ligand
[1] = War veterans with PTSD given cannabinoid infused chocolates; format: in vivo, human; conditions: THC alone
Protocol: In a separate set of observations and tests, war veterans suffering from post-traumatic stress disorder (PTSD) were observed purchasing large amounts of un-tested hashish from local dispensaries on sale days. After observing this, samples of this hashish were tested. […] Veterans suffering from PTSD received cannabinoid infused chocolates with controlled dosages. This process identified that chocolates infused with 44 mg of THC and 4 mg of CBD were effective in treating these veterans PTSD. Information reported by veterans identified that many of them were also suffering from pain and had been consuming opiates to combat the pain. The opiates that these veterans were taking reportedly exacerbated PTSD symptoms. […] Patients of Laguna Honda Hospital in California were also provided medications that included both THC and CBD and reported benefit.

Row | SMILES | tumor volume over time (pancreatic cancer) | effect on pancreatic cancer cells/tumors in mice (pancreatic cancer) | effect on pancreatic cancer cells/tumors in mice (pancreatic cancer; listed as Rimonabant) | benefit when treating pain combined with PTSD, versus combined THC/CBD medication [1] | psychotic side effects associated with PTSD [1]
1 | Nc1ccn([C@@H]2O[C@H](CO)[C@@H](O)C2(F)F)c(=O)n1 [Gemcitabine] | grew at even a slower rate | – | – | – | –
2 | Cc1c(C(=O)NN2CCCCC2)nn(-c2ccc(Cl)cc2Cl)c1-c1ccc(Cl)cc1 [SR1, Rimonabant] | grew at a slower rate | reducing pancreatic cancer tumors | shrunk pancreatic cancer cells | – | –
3 | CCCCCc1cc(O)c2c(c1)OC(C)(C)[C@@H]1CCC(C)=C[C@@H]21 [THC, tetrahydrocannabinol] | – | – | – | either not effective or provided limited benefits | increased psychotic side effects
